Test results as given in US6737383B1, “Herbicidal oxadiazolidines” (priority 1999, dated 2004).

Tests used:
bedstraw = experiment: Test B pre/postemergence bedstraw; format: in vivo, Galium aparine
In short: (§1)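 Herbicidal effect was estimated by eye on a ten-point control scale after plants spent twelve to sixteen days in a greenhouse following soil or foliar treatment. Foliar sprays targeted plants at one to four leaves; all doses were formulated in a non-phytotoxic solvent with surfactant.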

blackgrass = experiment: Test B pre/postemergence blackgrass; format: in vivo, Alopecurus myosuroides
In short: as §1

surinam grass = experiment: Test B pre/postemergence surinam grass; format: in vivo, Brachiaria decumbens
In short: as §1

cocklebur = experiment: Test B pre/postemergence cocklebur; format: in vivo, Xanthium strumarium
In short: as §1

corn = experiment: Test B pre/postemergence corn; format: in vivo, Zea mays
In short: as §1

crabgrass = experiment: Test B pre/postemergence crabgrass; format: in vivo, Digitaria sanguinalis
In short: as §1

giant foxtail = experiment: Test B pre/postemergence giant foxtail; format: in vivo, Setaria faberii
In short: as §1

morningglory = experiment: Test B pre/postemergence morningglory; format: in vivo, Ipomoea hederacea
In short: as §1

pigweed = experiment: Test B pre/postemergence pigweed; format: in vivo, Amaranthus retroflexus
In short: as §1

rape = experiment: Test B pre/postemergence rape; format: in vivo, Brassica napus
In short: as §1

soybean = experiment: Test B pre/postemergence soybean; format: in vivo, Glycine max
In short: as §1

sugar beet = experiment: Test B pre/postemergence sugar beet; format: in vivo, Beta vulgaris
In short: as §1

velvetleaf = experiment: Test B pre/postemergence velvetleaf; format: in vivo, Abutilon theophrasti
In short: as §1

wheat = experiment: Test B pre/postemergence wheat; format: in vivo, Triticum aestivum
In short: as §1

wild oat = experiment: Test B pre/postemergence wild oat; format: in vivo, Avena fatua
In short: as §1

purple nutsedge = experiment: Test B pre/postemergence purple nutsedge; format: in vivo, Cyperus rotundus
In short: as §1

rice = experiment: Test B flood test rice; format: in vivo, Oryza sativa; details: Pre-emergence
In short: (§2)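 Each value is a visual injury score relative to controls, with 10 meaning complete control and 0 no effect. Evaluation took place twelve to sixteen days after the 2-leaf-stage plants were treated and kept in the greenhouse.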

smallflower flatsedge = experiment: Test B flood test smallflower flatsedge; format: in vivo, Cyperus difformis; details: Pre-emergence
In short: as §2

duck salad = experiment: Test B flood test duck salad; format: in vivo, Heteranthera limosa; details: Pre-emergence
In short: as §2

bamyardgrass = experiment: Test B flood test barnyardgrass; format: in vivo, Echinochloa crus-galli; details: Pre-emergence
In short: as §2

[1] = Preemergence, Rate 31 g/ha, visual rating, scale 0 to 10 (0 no effect, 10 complete control)
[2] = Preemergence, Rate 62 g/ha, scale of 0 to 10 where 0 is no effect and 10 is complete control
[3] = Preemergence, Rate 250 g/ha, scale of 0 to 10 where 0 is no effect and 10 is complete control
[4] = Rate 31 g/ha, Postemergence, scale 0 to 10
[5] = Rate 62 g/ha, Postemergence, scale of 0 to 10 where 0 is no effect and 10 is complete control
[6] = Rate 125 g/ha, Postemergence, scale 0 to 10
[7] = Rate 125 g/ha, Preemergence, scale of 0 to 10 where 0 is no effect and 10 is complete control
[8] = Rate 1000 g/ha, scale 0 to 10 (0 no effect, 10 complete control)
[9] = Rate 125 g/ha, flood test species, scale 0 to 10 where 0 is no effect and 10 is complete control
[10] = Rate 250 g/ha, flood-test species, scale 0 to 10, 0 is no effect, 10 is complete control
[11] = Rate 500 g/ha, flood test species, scale 0 to 10 (0 no effect, 10 complete control)

CCOC(=O)C(C)N(C(=O)n1oc(=O)n(-c2c(C)cccc2C)c1=O)c1ccc(F)cc1 (stereo not drawn) [Compound 244]
0: Bedstraw plant response rating (bedstraw; [1]) | Bedstraw plant response rating (bedstraw; [2]) | Bedstraw plant response rating (bedstraw; [3]) | Bedstraw plant response rating (bedstraw; [4]) | Bedstraw plant response rating (bedstraw; [5]) | Bedstraw plant response rating (bedstraw; [6]) | Bedstraw plant response rating (bedstraw; [7]) | Plant response rating (0 to 10; 0 is no effect, 10 is complete control), Bedstraw (bedstraw; Rate 250 g/ha, Postemergence) | Blackgrass plant response rating (blackgrass; [1]) | Blackgrass plant response rating (blackgrass; [2]) | Blackgrass plant response rating (blackgrass; [3]) | Blackgrass plant response rating (blackgrass; [4]) | Blackgrass plant response rating (blackgrass; [5]) | Blackgrass plant response rating (blackgrass; [6]) | Blackgrass plant response rating (blackgrass; [7]) | Plant response rating (0 to 10; 0 is no effect, 10 is complete control), Blackgrass (blackgrass; Rate 250 g/ha, Postemergence) | B. signalgrass plant response rating (surinam grass; [1]) | B. signalgrass plant response rating (surinam grass; [2]) | B. signalgrass plant response rating (surinam grass; [3]) | B. signalgrass plant response rating (surinam grass; [4]) | B. signalgrass plant response rating (surinam grass; [5]) | B. signalgrass plant response rating (surinam grass; Rate 125 g/ha, Postemergence, scale 0 (no effect) to 10 (complete control)) | B. signalgrass plant response rating (surinam grass; [7]) | Plant response rating (0 to 10; 0 is no effect, 10 is complete control), B. signalgrass (surinam grass; Rate 250 g/ha, Postemergence) | Cocklebur plant response rating (cocklebur; [1]) | Cocklebur plant response rating (cocklebur; [2]) | Cocklebur plant response rating (cocklebur; [3]) | Cocklebur plant response rating (cocklebur; [4]) | Cocklebur plant response rating (cocklebur; [5]) | Cocklebur plant response rating (cocklebur; [6]) | Cocklebur plant response rating (cocklebur; [7]) | Plant response rating (0 to 10; 0 is no effect, 10 is complete control), Cocklebur (cocklebur; Rate 250 g/ha, Postemergence) | Corn plant response rating (corn; [1]) | Corn plant response rating (corn; [2]) | Corn plant response rating (corn; [3]) | Corn plant response rating (corn; [4]) | Corn plant response rating (corn; [5]) | Corn plant response rating (corn; [6]) | Corn plant response rating (corn; [7]) | Plant response rating (0 to 10; 0 is no effect, 10 is complete control), Corn (corn; Rate 250 g/ha, Postemergence) | Crabgrass plant response rating (crabgrass; [1]) | Crabgrass plant response rating (crabgrass; [2]) | Crabgrass plant response rating (crabgrass; [3]) | Crabgrass plant response rating (crabgrass; [4]) | Crabgrass plant response rating (crabgrass; [5]) | Crabgrass plant response rating (crabgrass; [7]) | Plant response rating (0 to 10; 0 is no effect, 10 is complete control), Crabgrass (crabgrass; Rate 250 g/ha, Postemergence) | Giant foxtail plant response rating (giant foxtail; [1]) | Giant foxtail plant response rating (giant foxtail; [2]) | Giant foxtail plant response rating (giant foxtail; [3]) | Giant foxtail plant response rating (giant foxtail; [4]) | Giant foxtail plant response rating (giant foxtail; [5]) | Giant foxtail plant response rating (giant foxtail; [7]) | Plant response rating (0 to 10; 0 is no effect, 10 is complete control), Giant foxtail (giant foxtail; Rate 250 g/ha, Postemergence) | Morningglory plant response rating (morningglory; [1]) | Morningglory plant response rating (morningglory; [2]) | Morningglory plant response rating (morningglory; [3]) | Morningglory plant response rating (morningglory; [4]) | Morningglory plant response rating (morningglory; [5]) | Morningglory plant response rating (morningglory; [7]) | Plant response rating (0 to 10; 0 is no effect, 10 is complete control), Morningglory (morningglory; Rate 250 g/ha, Postemergence) | Redroot pigweed plant response rating (pigweed; [1]) | Redroot pigweed plant response rating (pigweed; [2]) | Redroot pigweed plant response rating (pigweed; [3]) | Redroot pigweed plant response rating (pigweed; [4]) | Redroot pigweed plant response rating (pigweed; [5]) | Redroot pigweed plant response rating (pigweed; [7]) | Plant response rating (0 to 10; 0 is no effect, 10 is complete control), Redroot pigweed (pigweed; Rate 250 g/ha, Postemergence) | Rape plant response rating (rape; [1]) | Rape plant response rating (rape; [2]) | Rape plant response rating (rape; [3]) | Rape plant response rating (rape; [4]) | Rape plant response rating (rape; [5]) | Rape plant response rating (rape; [7]) | Plant response rating (0 to 10; 0 is no effect, 10 is complete control), Rape (rape; Rate 250 g/ha, Postemergence) | Soybean plant response rating (soybean; [1]) | Soybean plant response rating (soybean; [2]) | Soybean plant response rating (soybean; [3]) | Soybean plant response rating (soybean; [5]) | Soybean plant response rating (soybean; [7]) | Sugarbeets plant response rating (sugar beet; [1]) | Sugarbeets plant response rating (sugar beet; [2]) | Sugarbeets plant response rating (sugar beet; [3]) | Sugarbeets plant response rating (sugar beet; [5]) | Sugarbeets plant response rating (sugar beet; [7]) | Velvetleaf plant response rating (velvetleaf; [1]) | Velvetleaf plant response rating (velvetleaf; [2]) | Velvetleaf plant response rating (velvetleaf; [3]) | Velvetleaf plant response rating (velvetleaf; [5]) | Velvetleaf plant response rating (velvetleaf; [7]) | Wheat plant response rating (wheat; [1]) | Wheat plant response rating (wheat; [2]) | Wheat plant response rating (wheat; [3]) | Wheat plant response rating (wheat; [5]) | Wheat plant response rating (wheat; [7]) | Wild oats plant response rating (wild oat; [1]) | Wild oats plant response rating (wild oat; [2]) | Wild oats plant response rating (wild oat; [3]) | Wild oats plant response rating (wild oat; [5]) | Wild oats plant response rating (wild oat; [7]) | Nutsedge plant response rating (purple nutsedge; [1]) | Nutsedge plant response rating (purple nutsedge; [2]) | Nutsedge plant response rating (purple nutsedge; [3]) | Nutsedge plant response rating (purple nutsedge; [4]) | Nutsedge plant response rating (purple nutsedge; [5]) | Nutsedge plant response rating (purple nutsedge; [7]) | Plant response rating (0 to 10; 0 is no effect, 10 is complete control), Nutsedge (purple nutsedge; Rate 250 g/ha, Postemergence) | Rice plant response rating (rice; [8]) | Rice plant response rating (rice; [9]) | Rice plant response rating (rice; [10]) | Rice plant response rating (rice; [11]) | S. Flatsedge plant response rating (smallflower flatsedge; [8]) | S. Flatsedge plant response rating (smallflower flatsedge; [9]) | S. Flatsedge plant response rating (smallflower flatsedge; [10]) | S. Flatsedge plant response rating (smallflower flatsedge; [11]) | Ducksalad plant response rating (duck salad; [8]) | Ducksalad plant response rating (duck salad; [9]) | Ducksalad plant response rating (duck salad; [10]) | Ducksalad plant response rating (duck salad; [11]) | Barnyardgrass plant response rating (bamyardgrass; [8]) | Barnyardgrass plant response rating (bamyardgrass; [9]) | Barnyardgrass plant response rating (bamyardgrass; [10]) | Barnyardgrass plant response rating (bamyardgrass; [11])
